Results as given in patent publication US20240300927A1, “AMIDES AS CBL-B INHIBITORS” (Genentech, Inc., priority 2021, published 2024).

Legend:
[1] = target: Cbl-b (Homo sapiens (Human), UniProt Q13191); assay: Cbl-b LCK Ub TR-FRET assay (Cbl-b Lck HTRF); type: biochemical; conditions: for (fold-selectivity): Cbl-b and C-Cbl selectivity, Lck HTRF; for IC50: read-out: Cbl-b Lck HTRF IC50
Experimental: (§1) Compounds were 3-fold serially diluted in DMSO in a 384-well polypropylene plate (#P-05525-BC; Labcyte) to generate a source plate with 10 concentrations of each compound, top concentration=2 mM. 80 nL of DMSO or compounds were transferred to each well of a black 384-well ProxiPlate (#6008260; PerkinElmer) using a Labcyte Echo. 1× assay buffer (50 mM HEPES pH7.0, 100 mM NaCl, 0.01% BSA, 0.01% Triton-X100, 1 mM DTT), 2× enzyme solution (16 nM Biotin-Cbl-b or 12 nM Biotin-c-Cbl in 1× assay buffer), 2× kinase mixture (120 nM His-LCK, 1 mM ATP, 10 mM MgCl2 in assay buffer) and 2.33× detection mixture (4.66× solution 1: 163 nM Anti-HA-D2 antibody (#610HADAB; PerkinElmer), 27.96 nM Streptavidin-EU (#AD0062; PerkinElmer), 1.398 mM EDTA in 1× assay buffer+4.66× solution 2: 2.796 μM UBE2D2/Methylated-HA-Ubiquitin thioester adduct (BostonBiochem) in 1× assay buffer) were prepared. 4 μL of 2× enzyme solution was added to each well containing compound, briefly centrifuged to mix, and incubated for 60 min at room temperature. 4 μL of 2× kinase mixture was added, briefly centrifuged to mix, and incubated for 90 min. at room temperature. 6 μL of detection mixture was added to all wells and briefly centrifuged before incubating for 20 min at room temperature. Plates were read for TR-FRET using an Envision at excitation 340 nm, emission at 615 and 665 nm, 4 flashes per well. IC50 was generated using no LCK as the low control and DMSO as the high control.
(§2) Cbl-b Lck HTRF data in Table 3 is measured according to Example 25 herein; C-cbl Lck HTRF data is measured according to Example 25 herein.
(§3) SPR and the LCK biochemical assay are orthogonal assays: SPR is a protein binding assay while the LCK assay is an enzyme activity assay. SPR measures compound binding affinity to CBL-B/C-CBL, whereas LCK assay measures compound inhibition of CBL-B/C-CBL ubiquitin transfer activity.

[2] = target: c-Cbl (Homo sapiens (Human), UniProt P22681); assay: C-cbl LCK Ub TR-FRET assay (C-cbl Lck HTRF); type: biochemical
c-Cbl, sequence (P22681 47-435): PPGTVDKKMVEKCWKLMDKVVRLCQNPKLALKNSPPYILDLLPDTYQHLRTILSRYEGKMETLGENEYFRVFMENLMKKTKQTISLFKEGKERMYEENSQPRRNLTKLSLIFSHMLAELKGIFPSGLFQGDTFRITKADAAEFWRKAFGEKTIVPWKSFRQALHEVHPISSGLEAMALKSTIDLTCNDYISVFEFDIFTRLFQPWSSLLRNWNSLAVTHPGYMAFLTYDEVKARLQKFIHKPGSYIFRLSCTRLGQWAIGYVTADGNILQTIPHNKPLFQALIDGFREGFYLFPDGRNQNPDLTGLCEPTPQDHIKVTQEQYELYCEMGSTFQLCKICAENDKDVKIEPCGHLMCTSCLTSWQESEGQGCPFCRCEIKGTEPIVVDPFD
Experimental: as §1, §2, §3

Cbl-b, sequence (Q13191 40-426): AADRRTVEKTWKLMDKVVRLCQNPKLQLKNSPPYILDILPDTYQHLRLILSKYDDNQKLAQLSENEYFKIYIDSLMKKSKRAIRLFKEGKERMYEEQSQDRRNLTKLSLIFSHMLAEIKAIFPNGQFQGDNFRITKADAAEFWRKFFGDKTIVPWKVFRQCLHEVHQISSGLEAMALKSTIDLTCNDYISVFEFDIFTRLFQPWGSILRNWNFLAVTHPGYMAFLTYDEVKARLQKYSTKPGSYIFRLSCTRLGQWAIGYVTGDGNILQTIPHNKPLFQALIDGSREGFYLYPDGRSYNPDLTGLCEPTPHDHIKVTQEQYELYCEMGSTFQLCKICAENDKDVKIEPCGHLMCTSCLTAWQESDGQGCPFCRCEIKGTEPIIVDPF

SMILES	(fold-selectivity) [1]	IC50 [1] [nM]	IC50 [2] [nM]
Cn1cnnc1C[C@]1(c2cccc(NC(=O)c3cccc(C(F)(F)F)n3)c2)C[C@@H](F)C1 [Compound 19, N-(3-((1S,3R)-3-fluoro-1-((4-methyl-4H-1,2,4-triazol-3-yl)methyl)cyclobutyl)phenyl)-6-(trifluoromethyl)picolinamide]	(2.1x)	280	570
Cn1cnnc1[C@@H](F)C1(c2cccc(NC(=O)c3cc(CN4CC(C)(F)C4)cc(C(F)(F)F)n3)c2)COC1 [Compound 61, (S)-N-(3-(3-(fluoro(4-methyl-4H-1,2,4-triazol-3-yl)methyl)oxetan-3-yl)phenyl)-4-((3-fluoro-3-methylazetidin-1-yl)methyl)-6-(trifluoromethyl)picolinamide]	(2.3x)	180	420
Cn1cnnc1[C@@H](F)C1(c2cccc(NC(=O)c3cc(CN4CCC5(CC5)C4)cc(C4CC4)n3)c2)COC1 [Compound 6, (S)-4-(5-azaspiro[2.4]heptan-5-ylmethyl)-6-cyclopropyl-N-(3-(3-(fluoro(4-methyl-4H-1,2,4-triazol-3-yl)methyl)oxetan-3-yl)phenyl)picolinamide]	(1.7x)	20	33
Cn1cnnc1[C@@H](F)[C@@](C)(F)c1cccc(NC(=O)c2cc(CN3CCC4(CC4)C3)nc(C3CC3)n2)c1 [Compound 41, 6-(5-azaspiro[2.4]heptan-5-ylmethyl)-2-cyclopropyl-N-(3-((1R,2S)-1,2-difluoro-1-(4-methyl-4H-1,2,4-triazol-3-yl)propan-2-yl)phenyl)pyrimidine-4-carboxamide]	(2.5x)	4800	12000
C[C@H](Cc1nncn1C)c1cccc(NC(=O)c2nc(C(F)(F)F)c(CN3CCC4(CC4)C3)[nH]2)c1 [Compound 26, (R)-5-(5-azaspiro[2.4]heptan-5-ylmethyl)-N-(3-(1-(4-methyl-4H-1,2,4-triazol-3-yl)propan-2-yl)phenyl)-4-(trifluoromethyl)-1H-imidazole-2-carboxamide]	(1.5x)	1500	2200
Cn1cnnc1[C@H](F)C1(c2cccc(NC(=O)c3cc(CN4CCC5(CC5)C4)nc(C4CC4)n3)c2)COC1 [Compound 62, (R)-6-((5-azaspiro[2.4]heptan-5-yl)methyl)-2-cyclopropyl-N-(3-(3-(fluoro(4-methyl-4H-1,2,4-triazol-3-yl)methyl)oxetan-3-yl)phenyl)pyrimidine-4-carboxamide]	(1.2x)	120	140
Cn1cnnc1[C@H](F)C1(c2cccc(NC(=O)c3cc(CN4CC(C)(F)C4)nc(C4CC4)n3)c2)COC1 [Compound 20, (R)-2-cyclopropyl-N-(3-(3-(fluoro(4-methyl-4H-1,2,4-triazol-3-yl)methyl)oxetan-3-yl)phenyl)-6-((3-fluoro-3-methylazetidin-1-yl)methyl)pyrimidine-4-carboxamide]	(1.3x)	270	350
Cn1cnnc1[C@@H](F)[C@](C)(F)c1cccc(NC(=O)c2cc(CN3CCC4(CC4)C3)cc(C3CC3)n2)c1 [Compound 38, 4-(5-azaspiro[2.4]heptan-5-ylmethyl)-6-cyclopropyl-N-(3-((1R,2R)-1,2-difluoro-1-(4-methyl-4H-1,2,4-triazol-3-yl)propan-2-yl)phenyl)picolinamide]	(1.7x)	25	42
CC(C)[C@H]1CN(C)CCN1Cc1cc(C(=O)Nc2cccc(C3([C@H](F)c4nncn4C)CC(F)(F)C3)c2)nc(C2CC2)c1 [Compound 223, 6-cyclopropyl-N-(3-(3,3-difluoro-1-((S)-fluoro(4-methyl-4H-1,2,4-triazol-3-yl)methyl)cyclobutyl)phenyl)-4-(((S)-2-isopropyl-4-methylpiperazin-1-yl)methyl)picolinamide]	(1.0x)	11	11
Cn1cnnc1C(F)C1(c2cccc(NC(=O)c3nc(C(F)(F)F)c[nH]3)c2)COC1 (stereo not drawn) [Compound 124, N-(3-(3-(fluoro(4-methyl-4H-1,2,4-triazol-3-yl)methyl)oxetan-3-yl)phenyl)-4-(trifluoromethyl)-1H-imidazole-2-carboxamide]	(1.1x)	3700	3900
Cn1cnnc1[C@H](F)C1(c2cccc(NC(=O)c3cc(CN4CCC5(CC5)C4)cc(C4CC4)n3)c2)COC1 [Compound 5, (R)-4-(5-azaspiro[2.4]heptan-5-ylmethyl)-6-cyclopropyl-N-(3-(3-(fluoro(4-methyl-4H-1,2,4-triazol-3-yl)methyl)oxetan-3-yl)phenyl)picolinamide]	(1.6x)	19	30
Cn1cnnc1[C@@H](F)C1(c2cccc(NC(=O)c3cc(CN4CC(C)(F)C4)nc(C4CC4)n3)c2)COC1 [Compound 21, 2-cyclopropyl-6-[(3-fluoro-3-methyl-azetidin-1-yl)methyl]-N-[3-[3-[(S)-fluoro-(4-methyl-1,2,4-triazol-3-yl)methyl]oxetan-3-yl]phenyl]pyrimidine-4-carboxamide]	(1.3x)	510	670
CN(C)Cc1cc(C(=O)Nc2cccc(C3(Cc4nncn4C)COC3)c2)nc(C(F)(F)F)c1 [Compound 67, 4-((dimethylamino)methyl)-N-(3-(3-((4-methyl-4H-1,2,4-triazol-3-yl)methyl)oxetan-3-yl)phenyl)-6-(trifluoromethyl)picolinamide]	(1.6x)	210	340
C[C@H](c1cc(C(=O)Nc2cccc(C3([C@@H](F)c4nncn4C)COC3)c2)nc(C2CC2)c1)N1CC(C)(F)C1 [Compound 113, 6-cyclopropyl-N-(3-(3-((R)-fluoro(4-methyl-4H-1,2,4-triazol-3-yl)methyl)oxetan-3-yl)phenyl)-4-((R)-1-(3-fluoro-3-methylazetidin-1-yl)ethyl)picolinamide]	(1.2x)	21	27
Cn1cnnc1[C@H](F)[C@](C)(F)c1cccc(NC(=O)c2cc(CN3CC(C)(F)C3)nc(C3CC3)n2)c1 [Compound 43, 2-cyclopropyl-N-(3-((1S,2R)-1,2-difluoro-1-(4-methyl-4H-1,2,4-triazol-3-yl)propan-2-yl)phenyl)-6-((3-fluoro-3-methylazetidin-1-yl)methyl)pyrimidine-4-carboxamide]	(2.3x)	320	740
C[C@H](c1cc(C(=O)Nc2cccc(C3([C@H](F)c4nncn4C)COC3)c2)nc(C2CC2)c1)N1CCC2(CC2)C1 [Compound 25, 4-((R)-1-(5-azaspiro[2.4]heptan-5-yl)ethyl)-6-cyclopropyl-N-(3-(3-((S)-fluoro(4-methyl-4H-1,2,4-triazol-3-yl)methyl)oxetan-3-yl)phenyl)picolinamide]	(1.0x)	20	20
C[C@H](Cc1nncn1C)c1cccc(NC(=O)c2nc(C3CC3)c[nH]2)c1 [Compound 122, (R)-4-cyclopropyl-N-(3-(1-(4-methyl-4H-1,2,4-triazol-3-yl)propan-2-yl)phenyl)-1H-imidazole-2-carboxamide]	(0.79x)	2800	2200
Cn1cnnc1CC1(c2cccc(NC(=O)c3cc(CN4CC(C)(CO)C4)cc(C4CC4)n3)c2)CC(F)(F)C1 [Compound 496, 6-cyclopropyl-N-(3-(3,3-difluoro-1-((4-methyl-4H-1,2,4-triazol-3-yl)methyl)cyclobutyl)phenyl)-4-((3-(hydroxymethyl)-3-methylazetidin-1-yl)methyl)picolinamide]	(0.76x)	13	10
C[C@@H](c1cc(C(=O)Nc2cccc(C3(Cc4nncn4C)COC3)c2)nc(C(F)(F)F)c1)N1CCC2(CC2)C1 [Compound 3, (S)-4-(1-(5-azaspiro[2.4]heptan-5-yl)ethyl)-N-(3-(3-((4-methyl-4H-1,2,4-triazol-3-yl)methyl)oxetan-3-yl)phenyl)-6-(trifluoromethyl)picolinamide]	(1.9x)	25	47
Cn1cnnc1[C@H](F)C1(c2cccc(NC(=O)c3cc(CN)cc(C(F)(F)F)n3)c2)COC1.O=CO [Compound 64, (R)-4-(aminomethyl)-N-(3-(3-(fluoro(4-methyl-4H-1,2,4-triazol-3-yl)methyl)oxetan-3-yl)phenyl)-6-(trifluoromethyl)picolinamide formate]	(1.2x)	200	230
